Experimental findings from ChEMBL document CHEMBL1201862, “PubChem BioAssay data set” (2004) are described below.

Among the test systems are BT-549; HCT-15; HL-60; HOP-92; Hs-578T; MCF7; MDA-N; NCI-H226; NCI-H460; NCI/ADR-RES; OVCAR-5; SF-539; SNB-19; SNB-75; SW-620; TK-10; UACC-257; OVCAR-4; RXF 393; NCI-H522.
Common to all, as to assay: NCI-60 cell line screen, 48 h

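These data come from cells grown in 96-well plates and exposed to compound for 48 hours at five concentrations. The concentration for 50% growth inhibition is given as GI50.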 Calls of active or inactive are those of the source. No stated cut-off is given here; in the data, active = GI50 up to about 1.1 µM and inactive = higher.

As for `Cc1[nH]c2[nH]c(=S)nc(NC(N)=S)c2c1Cc1ccccc1`, the GI50 with BT-549 was 14.3 µM (inactive); in the assay on HCT-15, 58.6 µM; in the assay on HL-60 it was 13.6 µM (inactive); with HOP-92, > 100 µM (inactive); in the assay with Hs-578T, 18.9 µM (inactive); in the assay with MCF7, 38.1 µM (inactive). The GI50 with MDA-N was 22.7 µM (inactive); in the assay on NCI-H226, > 100 µM (inactive); in the assay on NCI-H460, 48.6 µM (inactive); with NCI/ADR-RES it was 48.8 µM (inactive); with OVCAR-5, > 100 µM (inactive); in the assay on SF-539, 37.2 µM (inactive). The GI50 is 97.9 µM (inactive) in the assay with SNB-19; 31.9 µM (inactive) in the assay on SNB-75; 34 µM (inactive) in the assay on SW-620; 62.8 µM (inactive) in the assay with TK-10; 54.3 µM (inactive) with UACC-257.

As to `COP(=O)(OC)C(NC=O)P(=O)(OC)OC`, the GI50 in the assay on BT-549 was > 100 µM (inactive); with HCT-15, greater than 100 µM; with HL-60, > 100 µM (inactive); in the assay with HOP-92 it was > 100 µM (inactive); in the assay on Hs-578T it was > 100 µM (inactive); in the assay on MCF7, > 100 µM (inactive). In addition, the GI50 in the assay on MDA-N, in the assay on NCI-H226, with NCI-H460, with NCI/ADR-RES, in the assay with OVCAR-4 and in the assay on RXF 393 was > 100 µM (inactive) each time. Also, the GI50 with SF-539, in the assay with SNB-19, with SW-620 and with TK-10 was > 100 µM (inactive) throughout.

As to `CC(C)C(NC(=O)Oc1ccccc1)C(=O)NC1c2c(Br)sc(Br)c2C(=O)C1O` (centres undefined), the GI50 in the assay with BT-549 is 3.67 µM (inactive); in the assay on HCT-15, 4.25 µM; with HL-60, 9.12 µM (inactive); in the assay with Hs-578T, 8.95 µM (inactive); with MCF7, > 25 µM (inactive); in the assay on MDA-N it was 11.6 µM (inactive). Besides, the GI50 in the assay with NCI-H226 was > 25 µM (inactive); in the assay with NCI-H460 it was 5.02 µM (inactive); in the assay on NCI/ADR-RES, 5.87 µM (inactive); with OVCAR-4, 2.94 µM (inactive); in the assay on OVCAR-5, 4.91 µM (inactive); in the assay on RXF 393 it was 3.75 µM (inactive). Moreover, the GI50 was 14.2 µM (inactive) with SF-539; 4.93 µM (inactive) in the assay on SNB-19; > 25 µM (inactive) in the assay on SNB-75; 6.1 µM (inactive) in the assay on SW-620; 8.49 µM (inactive) in the assay on TK-10; 4.72 µM (inactive) with UACC-257.

Take `COc1ccc(P2(=S)Oc3ccc(C(c4ccccc4)(c4ccccc4)c4ccccc4)cc3O2)cc1` (centres undefined): the GI50 was 24.9 µM (inactive) with BT-549; 19.3 µM in the assay with HCT-15; 15.5 µM (inactive) in the assay with HL-60; 18.1 µM (inactive) in the assay with HOP-92; 21.8 µM (inactive) with Hs-578T; 16.8 µM (inactive) in the assay with MCF7. The GI50 with MDA-N was 18.5 µM (inactive); with NCI-H226, 16.6 µM (inactive); in the assay on NCI-H460 it was 18.6 µM (inactive); in the assay on NCI-H522 it was 16.7 µM (inactive); in the assay with NCI/ADR-RES it was 20.6 µM (inactive); with OVCAR-4 it was 13.2 µM (inactive). The GI50 with OVCAR-5 was 19.5 µM (inactive); in the assay with SF-539, 19.9 µM (inactive); with SNB-19 it was 16 µM (inactive); with SNB-75 it was 13.7 µM (inactive); in the assay with SW-620 it was 19.6 µM (inactive); in the assay with TK-10 it was 19.1 µM (inactive). Further, the GI50 with UACC-257 is 19.2 µM (inactive).

Turning to `Cc1ccc(C(=O)N/N=C(\N=N\c2ccccc2[N+](=O)[O-])c2ccc(N(C)C)cc2)cc1`, the GI50 in the assay with BT-549 was > 100 µM (inactive); with HCT-15, 92.5 µM; in the assay on HL-60 it was 84.9 µM (inactive); in the assay with HOP-92, > 100 µM (inactive); in the assay with Hs-578T, > 100 µM (inactive); with MCF7, > 100 µM (inactive). The GI50 was > 100 µM (inactive) with MDA-N; > 100 µM (inactive) in the assay with NCI-H226; 66.8 µM (inactive) in the assay on NCI-H460; > 100 µM (inactive) in the assay with NCI-H522; > 100 µM (inactive) with NCI/ADR-RES; > 100 µM (inactive) with OVCAR-4. Also, the GI50 in the assay with OVCAR-5, with SF-539, in the assay with SNB-19, in the assay on SW-620, with TK-10 and in the assay with UACC-257 was > 100 µM (inactive) each time.

`CSc1ncnc2c1ncn2C1CC(Oc2ccc(C)cc2)C(COc2ccc(C)cc2)O1` (centres undefined): the GI50 was > 100 µM (inactive) in the assay with BT-549; greater than 100 µM in the assay on HCT-15; > 100 µM (inactive) with HL-60; > 100 µM (inactive) in the assay with HOP-92; > 100 µM (inactive) with Hs-578T; > 100 µM (inactive) in the assay on MCF7. Besides, the GI50 in the assay on MDA-N, with NCI-H226, in the assay on NCI-H460, in the assay with NCI-H522, with NCI/ADR-RES and with OVCAR-4 was > 100 µM (inactive) each time. The GI50 in the assay on OVCAR-5, in the assay with SF-539, with SNB-19, in the assay on SNB-75, in the assay with SW-620 and in the assay with TK-10 was > 100 µM (inactive) in each case. The GI50 in the assay with UACC-257 was > 100 µM (inactive).

For `Cc1cc2nc(N3C(=O)/C(=C/c4ccc(Cl)cc4)N=C3c3ccccc3)sc2cc1C`, the GI50 in the assay on BT-549 was 26.4 µM (inactive); in the assay with HCT-15, 29.1 µM; with HL-60, 21.6 µM (inactive); with HOP-92, 8.55 µM (inactive); in the assay with Hs-578T, 26 µM (inactive); in the assay with MCF7 it was 23.4 µM (inactive). For the same molecule, the GI50 in the assay on MDA-N was 12.5 µM (inactive); in the assay on NCI-H460, 23.7 µM (inactive); in the assay on NCI/ADR-RES, 23.2 µM (inactive); in the assay with OVCAR-4, 20 µM (inactive); with OVCAR-5, 24.2 µM (inactive); in the assay on RXF 393, 14.6 µM (inactive). For the same molecule, the GI50 was 18.7 µM (inactive) with SF-539; 42.5 µM (inactive) with SNB-19; 22.3 µM (inactive) in the assay with SNB-75; 27.6 µM (inactive) in the assay with SW-620; 39.3 µM (inactive) in the assay on TK-10; 28.4 µM (inactive) with UACC-257.

`CC1(C)[C@H]2Cc3cc4nc5ccccn5c4cc3[C@@H]1C2`: the GI50 with BT-549 is 24.9 µM (inactive); in the assay on HCT-15, 19.2 µM; in the assay on HL-60 it was 22.4 µM (inactive); with HOP-92, 14.5 µM (inactive); in the assay on Hs-578T, 15.6 µM (inactive); with MCF7, 3.37 µM (inactive). The GI50 with MDA-N was 17.3 µM (inactive); in the assay with NCI-H226, 16.2 µM (inactive); with NCI-H460, 18.4 µM (inactive); with NCI-H522, 4.58 µM (inactive); in the assay on NCI/ADR-RES, 18.2 µM (inactive); in the assay on OVCAR-4 it was 12 µM (inactive). For the same molecule, the GI50 in the assay with OVCAR-5 was 13.9 µM (inactive); in the assay on SF-539 it was 16.4 µM (inactive); in the assay with SNB-19, 16 µM (inactive); in the assay with SNB-75 it was 13.6 µM (inactive); in the assay with SW-620, 20.8 µM (inactive); in the assay on TK-10, 16.3 µM (inactive). Further, the GI50 with UACC-257 is 17.6 µM (inactive).
